According to patent US20110294728A1, “Antiviral Polypeptides” (priority 2008, published 2011):
Like-named read-outs stand apart in the source and are kept apart here. Where no end group is shown, it is not given here.

Key:
HIV-1 strain 2165 = conditions: peptide with Pep-1 or Pep-3 at ratio 20/1, combinations with Pep-3
HIV-1 integrase [1] = molecular target: T1, HIV-1 integrase (Human immunodeficiency virus type 1 group M subtype B, UniProt P04585); assay: biochemical
T1 construct: Integrase is a 32 kDA viral protein that is biologically active under a multimeric form
Experimental: (§1) The simultaneous measurement of integrase-DNA interaction and subsequent 3′-processing activity by steady-state fluorescence anisotropy was performed as described in Guiot et al. (2006). […] After the initial DNA-binding step (performed at 25° C.), the 3′-processing activity was measured at 37° C. by fixed-time experiments: The reaction was stopped at varying times by adding SDS (0.25% final) which disrupts all IN-DNA complexes in the sample. The IN-mediated cleavage of the terminal GT dinucleotide (labeled by fluorescein on the 3′-end) leads to a significant decrease of r as compared to the r value corresponding to the fluorescein-labeled unprocessed DNA substrate. The fraction of released dinucleotide is calculated by using Eq. (1): […]

IN/DNA complexes = IN/DNA complexes (Human immunodeficiency virus type 1 group M subtype B, UniProt P04585); assay: DNA-binding of integrase, fluorescence anisotropy; assay type: biochemical, HIV-1
Experimental: as §1

HIV-1 integrase [2] = molecular target: T1, HIV-1 integrase; assay: biochemical; assay type: binding
Experimental: Fluorescein-labeled peptides (40 nM) were mixed with varying concentrations of integrase in 20 mM Tris pH 7.2, 50 mM NaCl, 10 mM MgCl2, and the r values were recorded.
Effect of the different peptides on the integrase (IN) activity, DNA binding and IN/DNA dissociation were evaluated as described in Example III.1 above, using fluorescence polarization and anisotropy measurements. Binding constant of the peptide for IN was determined by steady state fluorescence and anisotropy.

HIV-1 strain NDK = conditions: peptide with Pep-1 or Pep-3 at ratio 20/1, combinations with Pep-3
[3] = tested on: efavirenz-resistance HIV strain harbouring K103N and N341V mutations on reverse transcriptase; assay type: in vivo, Hu-PBL-SCID transgenic mice; conditions: EFZ resistance strain; 20 mg/kg/day; peptides formulated with CADY-2c/CADY-1S1
Experimental: (§2) The potency of the peptides p27 (SEQ ID NO: 25) and p16 (SEQ ID NO: 19) was assessed in vivo following intravenous challenge of Hu-PBL-SCID transgenic mice (in which human (hu) peripheral blood leukocytes (PBLs) from healthy Epstein-Barr virus (EBV)-seropositive donors are injected into severe combined immunodeficiency (SCID) mice; Mosier et al., 1988). The mice (6 to 8 week-old male mice, 5 animals per group) were infected with wild type HIV 1 virus or efavirenz-resistance HIV strain harbouring K103N and N341V mutations on reverse transcriptase. Infected mice were treated with peptides formulated with the peptide vector CADY-2c (see above) in water at a ratio 1/20, and then particles were coated with 3% of CADY-1S1 (see above), as described in International Application WO 2007/069090. Particles were injected intravenously (100 μl) every 2 days for 1 week, then HIV-1 copy were quantified by quantitative PCR. Efavirenz (a non-nucleoside reverse transcriptase inhibitor; EFZ) was used a positive drug control.

HIV-1-LAI strain = tested on: HIV-1-LAI strain
Experimental: The anti-HIV activities of the peptides were assayed according to the methods described in Roisin et al. (2004). Phytohemagglutinin-P(PHA-P)-activated peripheral blood mononuclear cells (PBMC) treated by increasing concentrations of peptide (from 100 to 0.1 nM), one hour later, were infected with hundred 50% tissue culture infectious doses (TCID50) per 100,000 cells of the HIV-1-LAI strain (Barre-Sinoussi et al., 1983). This virus was amplified in vitro on PHA-P-activated PBMC. Viral stock was titrated using PHA-P-activated PBMC, and 50% TCID50 were calculated using Kärber's formula (Kärber, 1931). Samples were maintained throughout the culture, and cell supernatants were collected at day 7 post-infection and stored at −20° C. Viral replication was measured by quantifying reverse transcriptase (RT) activity in cell culture supernatants. In parallel, cytotoxicity of the compounds was evaluated in uninfected PHA-P-activated PBMC by colorimetric 3-(4-5 dimethylthiazol-2-yl)2,5diphenyl tetrazolium bromite (MTT) assay on day 7 (as described in Mossmann, 1983). Experiments were performed in triplicate and repeated with another blood donor. Data analyses were performed using SofiMax® Pro 4.6 microcomputer software: percent of inhibition of RT activity or of cell viability were plotted vs concentration and fitted with quadratic curves; 50% effective doses (ED50) and cytotoxic doses (CD50) were calculated.
In order to avoid any limitation due to the poor ability of peptides to cross cellular membranes, they were associated to the peptide-based nanoparticle delivery system Pep-1 (SEQ ID NO: 29), at a 1/10 molar ratio.

wild type HIV 1 virus = assay: HIV propagation in Hu-PBL-SCID mice, wild type virus; assay type: in vivo, Hu-PBL-SCID transgenic mice; conditions: 20 mg/kg; peptides formulated with CADY-2c/CADY-1S1; HIV-1 DNA copies in splenocyte extracts
Experimental: as §2

HIV-1 strain 1650 = conditions: peptide with Pep-1 or Pep-3 at ratio 20/1, combinations with Pep-3
HIV-1 strain 2914 = conditions: peptide with Pep-1 or Pep-3 at ratio 20/1, combinations with Pep-3
HIV-1 strain BH10 = conditions: peptide with Pep-1 or Pep-3 at ratio 20/1, combinations with Pep-3
in vivo = conditions: for half-life: female, BALB/c, mouse, in vivo, iv, 10 μg; for tissues with peptide accumulation: formulated with CADY-2c/CADY-1S1, after 24 hr; for time of optimal distribution: formulated with CADY-2c/CADY-1S1, intravenous; for distribution of naked peptide: intravenous, after 15 min
Experimental: In order to evaluate the potency of the peptides p27 (SEQ ID NO: 25) and p16 (SEQ ID NO: 19) in vivo, it was analyzed their ability to be systemically administrated by intravenous injection in mice (BALB/c; 6 to 8 week-old female mice). Peptides were either radio-labeled at the N-terminal amino acid or fluorescently labeled with Alexa® Fluo700 probe. […] Particles were injected intravenously (100 μl) and kinetic of peptide distribution were followed by fluorescence live imaging. 24 hr after injection, the level of peptides in the different tissues were quantified by fluorescence and radioactivity.

[4] = read-out: EC50 HIV-1 lai, Table 10

Sequence | IC50 (HIV-1 strain 2165) | EC50 (HIV-1 integrase [1]) | Ki (HIV-1 integrase [1]) | EC50 (IN/DNA complexes) | Kd (HIV-1 integrase [2]) | IC50 (HIV-1 strain NDK) | reduction of viral propagation [3] | EC50 (HIV-1-LAI strain; [4]) | HIV propagation in vivo (in words) (wild type HIV 1 virus) | IC50 (HIV-1 strain 1650) | IC50 (HIV-1 strain 2914) | IC50 (HIV-1 strain BH10) | half-life (in vivo) | tissues with peptide accumulation (in vivo) | time of optimal distribution (in vivo) | distribution of naked peptide (in vivo) | Kd (HIV-1 integrase [2]; read-out: Kd IN binding, Table 10, cell prints μM) | EC50 (HIV-1-LAI strain; PBMC, HIV-1 LAI, day 7, /Pep-1 = associated to Pep-1 at 1/10 molar ratio) | IC50 (HIV-1-LAI strain; read-out: IC50, antiviral activity, text b123, peptide with Pep-1)
GTKWLTEVWPL [Peptide P16] | 2.7 nM | 10000 nM | 10000 nM | 8000 nM | 0.12 µM | 2.9 nM | 58% | 5.9 nM | block HIV propagation in vivo | 7.5 nM | 1.7 nM | 5.9 nM | < 1 h | liver, brain, stomach, kidney, lung | 5 h | accumulated mainly in the bladder | – | – | –
GTKWLTEWIPLTAE [Peptide P27] | 2.6 nM | > 100000 nM | > 100000 nM | > 100000 nM | > 100 µM | 0.3 nM | 72% | 0.21 nM | block HIV propagation in vivo | 0.8 nM | 0.2 nM | 1.4 nM | < 1 h | liver, brain, stomach, kidney, lung | 5 h | accumulated mainly in the bladder | > 100 µM | > 1000 nM | < 0.32 nM
